Assay results published in PubChem BioAssay AID248 (DTP/NCI, 2004).
Values joined by “and” are separate entries in the source; they are usually repeats but may differ in a detail not shown here. Identical values can stand only once. Toxic doses and inconclusive results are not listed. No stated cut-off is given here; in the data, active means T/C of 150% or more; inactive means T/C below 125%.

Test system: L1210 leukemia ip in BDF1 mice, survival T/C
Experiment: NCI In Vivo Anticancer Drug Screen. Data for tumor model L1210 Leukemia (intraperitoneal) in B6D2F1 (BDF1) mice
Conditions: endpoint: mean survival time, higher = longer survival
In short: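 In this screen, tumor-bearing mice given compound are compared to those given vehicle, and their survival values are reported as a treated-to-control quotient.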

[1] = dose: 100.0 mg/kg/injection, schedule: Q01DX009 (ip), vehicle: Klucel (hydroxypropylcellulose) (HPC)
[2] = dose: 200.0 mg/kg/injection, schedule: Q01DX009 (ip), vehicle: Klucel (hydroxypropylcellulose) (HPC)
[3] = dose: 400.0 mg/kg/injection, schedule: Q01DX009 (ip), vehicle: Klucel (hydroxypropylcellulose) (HPC)
[4] = dose: 200.0 mg/kg/injection, schedule: Q01DX001 (ip), vehicle: carboxymethylcellulose (CMC)
[5] = dose: 400.0 mg/kg/injection, schedule: Q01DX001 (ip), vehicle: carboxymethylcellulose (CMC)
[6] = dose: 100.0 mg/kg/injection, schedule: Q04DX003 (ip), vehicle: saline
[7] = dose: 100.0 mg/kg/injection, schedule: Q04DX002 (ip), vehicle: Klucel (hydroxypropylcellulose) (HPC)
[8] = dose: 200.0 mg/kg/injection, schedule: Q04DX002 (ip), vehicle: Klucel (hydroxypropylcellulose) (HPC)
[9] = dose: 400.0 mg/kg/injection, schedule: Q04DX002 (ip), vehicle: Klucel (hydroxypropylcellulose) (HPC)
[10] = dose: 25.0 mg/kg/injection, schedule: Q01DX009 (ip), vehicle: saline with Tween-80
[11] = dose: 50.0 mg/kg/injection, schedule: Q01DX009 (ip), vehicle: saline with Tween-80
[12] = dose: 100.0 mg/kg/injection, schedule: Q01DX009 (ip), vehicle: saline with Tween-80
[13] = dose: 100.0 mg/kg/injection, schedule: Q04DX003 (ip), vehicle: saline with Tween-80
[14] = dose: 100.0 mg/kg/injection, schedule: Q01DX001 (ip), vehicle: saline
[15] = dose: 200.0 mg/kg/injection, schedule: Q01DX001 (ip), vehicle: saline
[16] = dose: 400.0 mg/kg/injection, schedule: Q01DX001 (ip), vehicle: saline

Measured: T/C

COc1ccc(/C=C/c2cnc3ccccc3n2)cc1OC
inactive: [1] 91 % of control | dose: 100.0 mg/kg/injection, schedule: Q04DX003 (ip), vehicle: Klucel (hydroxypropylcellulose) (HPC) 98 % of control | [2] 100 % of control | dose: 200.0 mg/kg/injection, schedule: Q04DX003 (ip), vehicle: Klucel (hydroxypropylcellulose) (HPC) 93 % of control | [3] 92 % of control | dose: 400.0 mg/kg/injection, schedule: Q04DX003 (ip), vehicle: Klucel (hydroxypropylcellulose) (HPC) 97 % of control

COC1=CC(=O)C2=C(C1=O)C1(C)CCCC(C)(COC(C)=O)C1CC2 (stereo unspecified)
inactive: [4] 95 % of control | [5] 88 % of control

Cc1c2cnccc2c(C)c2c1c1ccccc1n2C(C)C
inactive: dose: 37.5 mg/kg/injection, schedule: Q04DX003 (ip), vehicle: saline 100 % of control | dose: 62.5 mg/kg/injection, schedule: Q01DX009 (ip), vehicle: saline with Tween-80 110 % of control | dose: 75.0 mg/kg/injection, schedule: Q04DX003 (ip), vehicle: saline 101 % of control | dose: 150.0 mg/kg/injection, schedule: Q04DX003 (ip), vehicle: saline 104 % of control | dose: 300.0 mg/kg/injection, schedule: Q04DX003 (ip), vehicle: saline 124 % of control

COc1c(NC(=O)Nc2ccc(SC)cc2)cccc1[N+](=O)[O-]
inactive: [1] 89 % of control | [2] 98 % of control | [3] 93 % of control

CCOC(=O)CC(C[N+](=O)[O-])C(F)(F)F (stereo unspecified)
inactive: dose: 100.0 mg/kg/injection, schedule: Q01DX001 (ip), vehicle: other 103 % of control | dose: 200.0 mg/kg/injection, schedule: Q01DX001 (ip), vehicle: other 97 % of control | dose: 400.0 mg/kg/injection, schedule: Q01DX001 (ip), vehicle: other 103 % of control

N=C(N)SC/C=C/CSC(=N)N
inactive: dose: 25.0 mg/kg/injection, schedule: Q04DX003 (ip), vehicle: saline 106 % of control | dose: 50.0 mg/kg/injection, schedule: Q04DX003 (ip), vehicle: saline 96 % of control | [6] 103 % of control and 88 % of control

CC(=O)c1ccccc1C(C)c1ccc(C)c2ccccc12 (stereo unspecified)
inactive: [7] 120 % of control | [8] 97 % of control | [9] 104 % of control

COC(=O)c1ccccc1N1C(=O)C=CC1=O
inactive: dose: 6.25 mg/kg/injection, schedule: Q01DX009 (ip), vehicle: saline with Tween-80 97 % of control | dose: 12.5 mg/kg/injection, schedule: Q01DX009 (ip), vehicle: saline with Tween-80 98 % of control | [10] 103 % of control

O=C(O)CSc1ccc([N+](=O)[O-])cn1
inactive: dose: 6.25 mg/kg/injection, schedule: Q01DX001 (ip), vehicle: carboxymethylcellulose (CMC) 108 % of control | dose: 12.5 mg/kg/injection, schedule: Q01DX001 (ip), vehicle: carboxymethylcellulose (CMC) 111 % of control | dose: 25.0 mg/kg/injection, schedule: Q01DX001 (ip), vehicle: carboxymethylcellulose (CMC) 104 % of control | dose: 37.5 mg/kg/injection, schedule: Q01DX001 (ip), vehicle: carboxymethylcellulose (CMC) 104 % of control | dose: 50.0 mg/kg/injection, schedule: Q01DX001 (ip), vehicle: carboxymethylcellulose (CMC) 115 % of control | dose: 100.0 mg/kg/injection, schedule: Q01DX001 (ip), vehicle: carboxymethylcellulose (CMC) 101 % of control | [4] 103 % of control | [5] 101 % of control

C=C(Br)CNC(=O)NCC
inactive: [10] 94 % of control | [11] 91 % of control | [12] 105 % of control | [13] 97 % of control

CC(=O)NC(C(O)CC(=O)C(=O)O)C(O)C(O)C(O)CO (stereo unspecified) (tested in a mixture with another compound)
inactive: [14] 102 % of control | [15] 100 % of control | [16] 102 % of control

CC(NC(=O)c1ccccc1)C(=O)O (stereo unspecified)
inactive: dose: 50.0 mg/kg/injection, schedule: Q01DX009 (ip), vehicle: Klucel (hydroxypropylcellulose) (HPC) 110 % of control | [1] 91 % of control | [7] 90 % of control | [8] 108 % of control | [9] 93 % of control

Brc1ccccc1N=Nc1ccccc1Br
inactive: [13] 92 % of control | dose: 200.0 mg/kg/injection, schedule: Q04DX003 (ip), vehicle: saline with Tween-80 91 % of control | dose: 400.0 mg/kg/injection, schedule: Q04DX003 (ip), vehicle: saline with Tween-80 107 % of control

COc1cc(/C=N/N=C(\C)c2ccc3ccccc3c2)cc(OC)c1OC
inactive: [1] 90 % of control | [2] 94 % of control | [3] 100 % of control

Cc1ccc(NC(=O)Nc2ccccc2Cl)cc1
inactive: dose: 100.0 mg/kg/injection, schedule: Q01DX009 (ip), vehicle: gum acacia 86 % of control | dose: 100.0 mg/kg/injection, schedule: Q04DX003 (ip), vehicle: gum acacia 89 % of control | dose: 200.0 mg/kg/injection, schedule: Q01DX009 (ip), vehicle: gum acacia 94 % of control | dose: 200.0 mg/kg/injection, schedule: Q04DX003 (ip), vehicle: gum acacia 89 % of control | dose: 400.0 mg/kg/injection, schedule: Q01DX009 (ip), vehicle: gum acacia 94 % of control | dose: 400.0 mg/kg/injection, schedule: Q04DX003 (ip), vehicle: gum acacia 98 % of control

O=C(O)C(Br)C(Br)C(=O)O.[Ag] (stereo unspecified)
inactive: dose: 9.38 mg/kg/injection, schedule: Q01DX001 (ip), vehicle: other 94 % of control | dose: 18.75 mg/kg/injection, schedule: Q01DX001 (ip), vehicle: other 94 % of control

Cc1cc(C)c([As](=O)(O)O)c([N+](=O)[O-])c1
inactive: [14] 90 % of control | [15] 101 % of control | [16] 104 % of control

c1ccc(NC2=NCCO2)nc1
inactive: [11] 100 % of control | [12] 94 % of control | dose: 200.0 mg/kg/injection, schedule: Q01DX009 (ip), vehicle: saline with Tween-80 102 % of control

Oc1c(Br)cc(Br)c2cccnc12
inactive: [1] 100 % of control | [6] 98 % of control | [2] 91 % of control | dose: 200.0 mg/kg/injection, schedule: Q04DX003 (ip), vehicle: saline 102 % of control | [3] 86 % of control | dose: 400.0 mg/kg/injection, schedule: Q04DX003 (ip), vehicle: saline 96 % of control

CC(F)C(Br)C(=O)O (stereo unspecified)
inactive: dose: 100.0 mg/kg/injection, schedule: Q04DX002 (ip), vehicle: saline 90 % of control | dose: 200.0 mg/kg/injection, schedule: Q04DX002 (ip), vehicle: saline 90 % of control
